Values quoted from earlier work as cited in patent US20230082870A1, “COMPOSITION FOR CALCIUM SUPPLEMENTATION” (ABIOGEN PHARMA S.P.A., priority 2017, published 2023).

Settings: state of the art

For `O=C([O-])CC(O)(CC(=O)[O-])C(=O)[O-].O=C([O-])CC(O)(CC(=O)[O-])C(=O)[O-].[Ca+2].[Ca+2].[Ca+2]` [calcium citrate], the “Bioavailability, higher than that of calcium carbonate” value is given as 20-30%.
